Laboratory results taken from paper PMC7531004, “Discovery of gramicidin A analogues with altered activities by multidimensional screening of a one-bead-one-compound library” (Nature Communications, 2020).
Where “and” joins values, the source holds several entries; their conditions need not be identical. Identical values can stand only once. Like-named read-outs stand apart in the source and are kept apart here. Where a SMILES comes first, the peptide text is derived from it. [ ]: non-standard residue; d: D form. The star is where a group is joined. NHCH2CH2OH = OCCN*; For = O=C*

Legend:
rabbit red blood cells = details: red cells of rabbit, 2 h
Description: Second, we examined the cytotoxicity toward mammalian cancer cells and hemolytic activity of 1. […] Hemolytic activity was evaluated by monitoring hemoglobin leakage from rabbit red blood cells as a consequence of membrane damage. The concentration of 1 required to cause 10% hemoglobin leakage (HC10) was 160 nM. Thus, the P388 cytotoxicity of 1 was 28-fold more sensitive than its hemolytic activity.
Hemolysis assay of purified peptides. […]
with DMSO to various concentrations as 3-fold serial dilution. A 50% suspension of rabbit blood in Alsever's solution was obtained from Nippon Bio -Supp. Center . The blood suspension (250 µL) w as diluted with phosphate buffered saline (no calcium, no magnesium, 1.00 mL). The resultant suspension was centrifuged at 1000 × g for 3 min at 8 °C. The supernatant was discarded, and the collected cells were resuspended in phosphate buffered saline (no calcium, no magnesium, 1.00 mL). The same procedure was repeated (× 3). The resultant suspension (100 µL) was diluted with phosphate buffered saline (no calcium, no magnesium, 4.90 mL) to give 0.2% red blood cells suspension. The 0.2% red blood cells suspension (95.0 µL) and each dilution series of the purified peptide in DMSO (5 .0 µL) were mixed in 2 mL microtube.
supernatant was transferred to a 96-well plate (TR5003, TrueLine). The absorbance of each well at 415 nm was measured using a Thermo Scientific Multiskan GO (Thermo Fisher Scientific). The mixture of Triton X-100/H2O (5/95, 2.0 µL), DMSO (5.0 µL), and the 0.2% red blood cells suspension (95.0 µL) was used to determine 100% hemolysis. The mixture of DMSO (5.0 µL) and the 0.2% red blood cells suspension (95.0 µL) was used to determine 0% hemolysis. The hemolytic activities of tested peptides ( I) were normalized against 100% hemolysis by Triton X -100 (Imax) and 0% hemolysis by DMSO (I0) according to Supplementary Equation 3, where Ix is the UV absorbance.
I = 100 × (Ix – I0) / (Imax – I0) (3)
The hemolytic activities of the purified peptides were evaluated as the concentrations causing 10% hemolysis (HC10, nM) by means of three replicates. Sigmoidal curve fittings were performed on GraphPad Prism (GraphPad software, Supplementary Figure 7).

[1] = H+/Na+ transport assay of purified peptides; details: for Supplementary Figure 5 dose-response value (H+/Na+ transport): three replicate lines
Description: First, we evaluated the ion channel function of 1 using liposomes. To mimic a negatively charged Gram-positive bacterial membrane, the liposomes were prepared as large unilamellar vesicles (LUVs) comprising a 19:1 mixture of egg yolk phosphatidylcholine (EYPC) and egg yolk phosphatidylglycerol (EYPG)[57]. Pyranine, a pH-dependent fluorescent dye[58], was encapsulated in the LUVs and a pH gradient was applied across the membrane. H^+/Na^+ transport induced by a peptide was monitored by changes in the fluorescence intensity of pyranine.

[2] = system: MSSA1 (methicillin-susceptible Staphylococcus aureus); type: cell-based
Description: (§1) Evaluation of antibacterial spectra of purified peptides. The MIC assay was performed according to the Clinical and Laboratory Standards Institute protocols. The antibacterial activities of the purified peptides A1, B01–B04, B11–B13, B21, and B22 were measured using the broth microdilution method. 6 Serial dilutions of the peptides were prepared in cation adjusted Mueller Hinton Broth. Each dilution (100 µL) was dispensed to each well of the round-bottom plate to obtain final concentrations ranging from 64 µg/mL to 0.00024 µg/mL. Bacteria were grown at 37 °C overnight on Tryptic Soy Broth or Mueller Hinton Broth agar plates.
(§2) The bacterial colonies were suspended in 0.9% saline to obtain OD 625 of 0.08–0.13 using a spectrophotometer UV-1280 (Shimadzu). The resultant suspension was diluted with cation adjusted Mueller Hinton Broth (1/20). The resultant mixture (10 .0 µL) was inoculated to each well of the plates (approximately 5 × 10^4 CFU/well), mixed, and incubated at 37 °C for 18–24 h. The MIC value was determined as the minimum concentration that inhibited growth of bacteria. For Streptococcus species, cation adjusted Mueller Hinton Broth supplemented with 5% laked horse blood was used. […]

[3] = system: Streptococcus pyogenes SSI-9; details: for antibacterial activity/MIC: S. pyogenes; for Antibacterial activity MIC: SSI-9
Description: (§3) Third, 1 was subjected to five pathogenic Gram-positive bacteria.
as §1, §2

[4] = system: Streptococcus pneumoniae NBRC 102642; details: for Antibacterial activity MIC: NBRC 102642; for antibacterial activity/MIC: S. pneumoniae
Description: as §3, §1, §2

[5] = system: Listeria monocytogenes 10403S; details: for Antibacterial activity MIC: 10403S; for antibacterial activity/MIC: L. monocytogenes
Description: as §3, §1, §2

[6] = system: Enterococcus faecalis JCM5803; details: for antibacterial activity/MIC: E. faecalis; for Antibacterial activity MIC: JCM5803
Description: as §3, §1, §2

[7] = system: Streptococcus agalactiae JCM5671; details: for Antibacterial activity MIC: JCM5671; for antibacterial activity/MIC: S. agalactiae
Description: as §3, §1, §2

[8] = read-out: EC50, H+/Na+ transport assay, 1st experiment
[9] = read-out: EC50, H+/Na+ transport assay, 2nd experiment
[10] = read-out: EC50, H+/Na+ transport assay, 3rd experiment
[11] = read-out: H+/Na+ transport activity EC50, EYPC/EYPG (19:1) LUVs
[12] = read-out: H+/Na+ transport activity/EC50, mean ± SD of three independent experiments

SMILES	Hemolytic activity HC10 (concentration causing 10% hemolysis) (rabbit red blood cells) [nM]	Supplementary Figure 5 dose-response value (H+/Na+ transport) ([1]; concentration 0.000512 nM)	Supplementary Figure 5 dose-response value (H+/Na+ transport) ([1]; concentration 0.00256 nM)	Supplementary Figure 5 dose-response value (H+/Na+ transport) ([1]; concentration 0.0128 nM)	Supplementary Figure 5 dose-response value (H+/Na+ transport) ([1]; concentration 0.064 nM)	Supplementary Figure 5 dose-response value (H+/Na+ transport) ([1]; concentration 0.32 nM)	Supplementary Figure 5 dose-response value (H+/Na+ transport) ([1]; concentration 1.6 nM)	Supplementary Figure 5 dose-response value (H+/Na+ transport) ([1]; concentration 8 nM)	Supplementary Figure 5 dose-response value (H+/Na+ transport) ([1]; concentration 40 nM)	Supplementary Figure 5 dose-response value (H+/Na+ transport) ([1]; concentration 200 nM)	Supplementary Figure 5 dose-response value (H+/Na+ transport) ([1]; concentration 1000 nM)	Supplementary Figure 5 dose-response value (H+/Na+ transport) ([1]; concentration 5000 nM)	EC50 [1, 8] [nM]	EC50 [1, 9] [nM]	EC50 [1, 10] [nM]	EC50 [1, 11] [nM]	EC50 [1, 12] [nM]	antibacterial activity/MIC [2] [µg/mL]	antibacterial activity/MIC [3] [µg/mL]	antibacterial activity/MIC [4] [µg/mL]	further results
CC(C)C[C@@H](NC(=O)[C@H](C)NC(=O)CNC(=O)[C@@H](NC=O)C(C)C)C(=O)N[C@@H](C)C(=O)N[C@@H](C(=O)N[C@H](C(=O)N[C@@H](C(=O)N[C@@H](Cc1c[nH]c2ccccc12)C(=O)N[C@@H](C(=O)N[C@@H](Cc1c[nH]c2ccccc12)C(=O)N[C@H](CC(C)C)C(=O)N[C@@H](Cc1c[nH]c2ccccc12)C(=O)N[C@@H](C(=O)N[C@@H](Cc1c[nH]c2ccccc12)C(=O)NCCO)C(C)C)C(C)C)C(C)C)C(C)C)C(C)C [B04] (For-VGA[dL]A[dV]V[dV]W[dV]W[dL]W[dV]W-NHCH2CH2OH)	1100	-0.2346 and 0.9427 and 1.027	1.3317 and 0.8542 and 1.548	-1.2605 and 2.862 and -0.09432	5.945 and 3.111 and 2.028	10.5694 and 12.3828 and 8.56	26.4566 and 23.815 and 22.5252	54.4909 and 53.2036 and 54.0987	70.9935 and 73.4781 and 68.8062	73.8391 and 72.9169 and 76.5429	75.0683 and 78.833 and 77.3632	78.0479 and 76.1013 and 78.9016	3.43	3.5	4.18	3.7	3.71 ± 0.42	32	0.063	0.016	Antibacterial activity MIC [3]: 0.034 µM; Antibacterial activity MIC [4]: 0.0084 µM; Antibacterial activity MIC [5]: 4.3 µM; antibacterial activity/MIC [5]: 8 µg/mL; antibacterial activity/MIC [6]: 1 µg/mL; Antibacterial activity MIC [6]: 0.54 µM; Antibacterial activity MIC [7]: 4.3 µM; antibacterial activity/MIC [7]: 8 µg/mL
CC(C)C[C@@H](NC(=O)[C@H](Cc1c[nH]c2ccccc12)NC(=O)[C@@H](CC(C)C)NC(=O)[C@H](Cc1c[nH]c2ccccc12)NC(=O)[C@@H](CC(C)C)NC(=O)[C@H](Cc1c[nH]c2ccccc12)NC(=O)[C@H](NC(=O)[C@@H](NC(=O)[C@H](NC(=O)[C@H](C)NC(=O)[C@H](NC(=O)[C@H](C)NC(=O)CNC(=O)[C@@H](NC=O)C(C)C)C(C)C)C(C)C)C(C)C)C(C)C)C(=O)N[C@@H](Cc1c[nH]c2ccccc12)C(=O)NCCO [A1] (For-VGA[dV]A[dV]V[dV]W[dL]W[dL]W[dL]W-NHCH2CH2OH)	240	1.8002 and 1.763 and 1.206	3.307 and 4.634 and 1.407	5.867 and 6.44 and 5.481	6.841 and 9.002 and 6.572	16.8499 and 16.683 and 16.1323	35.8143 and 34.663 and 30.2235	59.1193 and 56.2604 and 57.9939	69.1281 and 68.6879 and 67.3822	71.9954 and 72.6939 and 69.0451	75.1932 and 74.1998 and 72.8534	74.4116 and 69.1356 and 72.7894	1.9	3.5	1.99	2.5	2.46 ± 0.9	8	0.015	0.0019	Antibacterial activity MIC [3]: 0.008 µM; Antibacterial activity MIC [4]: 0.001 µM; Antibacterial activity MIC [5]: 1.1 µM; antibacterial activity/MIC [5]: 2 µg/mL; antibacterial activity/MIC [6]: 0.25 µg/mL; Antibacterial activity MIC [6]: 0.13 µM; Antibacterial activity MIC [7]: 0.54 µM; antibacterial activity/MIC [7]: 1 µg/mL
CC(C)C[C@@H](NC(=O)[C@H](C)NC(=O)CNC(=O)[C@@H](NC=O)C(C)C)C(=O)N[C@@H](C)C(=O)N[C@@H](C(=O)N[C@H](C(=O)N[C@@H](C(=O)N[C@@H](Cc1c[nH]c2ccccc12)C(=O)N[C@H](CC(C)C)C(=O)N[C@@H](Cc1c[nH]c2ccccc12)C(=O)N[C@H](CC(C)C)C(=O)N[C@@H](Cc1c[nH]c2ccccc12)C(=O)N[C@@H](C(=O)N[C@@H](Cc1c[nH]c2ccccc12)C(=O)NCCO)C(C)C)[C@H](C)O)C(C)C)C(C)C [B12] (For-VGA[dL]A[dV]V[dT]W[dL]W[dL]W[dV]W-NHCH2CH2OH)	> 3000	2.818 and 0.0271 and -0.589	3.476 and 5.315 and 5.077	4.761 and 4.753 and 4.729	8.321 and 5.0339 and 7.369	16.8579 and 20.7391 and 16.934	35.2545 and 35.7349 and 38.3822	63.7974 and 60.2094 and 62.8038	71.4784 and 67.4712 and 69.6703	72.1513 and 73.1412 and 71.1696	74.8337 and 73.0658 and 70.6415	78.5724 and 78.4083 and 76.7501	1.66	0.838	2.98	1.8	1.83 ± 1.08	4	0.13	0.016	antibacterial activity/MIC [5]: 4 µg/mL; antibacterial activity/MIC [6]: 2 µg/mL; Antibacterial activity MIC [6]: 1.1 µM; Antibacterial activity MIC [7]: 8.6 µM; antibacterial activity/MIC [7]: 16 µg/mL
